According to the OPERA property sets (Mansouri et al. 2018):
Values after ≈ are worked out from the molar mass of the structure shown.

Details: not given

Row | SMILES | melting point [°C] | boiling point [°C] | log10 Henry constant (atm·m³/mol) | log10 vapour pressure (mmHg) | solubility [µM] | ready biodegradability | logP | log10 biodegradation half-life (days)
1 | NC(=O)c1c(F)cccc1F | 146 | – | – | – | – | – | – | –
2 | Cc1coc2ccccc2c1=O | 68 | – | – | – | – | – | – | –
3 | FC(F)(F)c1nc(C(F)(F)F)nc(C(F)(F)F)n1 | -24.8 | 95.5 | – | – | – | – | – | –
4 | CC(C)=CCC[C@@H](C)[C@H]1CC[C@H]2[C@@H]3CC=C4C[C@@H](O)CC[C@]4(C)[C@H]3CC[C@]12C | 122 | – | – | – | – | – | – | –
5 | CN1CCc2cc3c(cc2C1)OCO3 | 66 | 304 | – | – | – | – | – | –
6 | FC(F)(F)CI | – | 54.5 | – | – | – | – | – | –
7 | CCSSCC | -102 | 154 | -2.67 | 0.631 | 2450 (≈ 300 µg/mL) | – | – | –
8 | FC(F)(F)C1(F)C(F)(F)C(F)(F)C(F)(F)C(F)(F)C1(F)F | -44.7 | 76.3 | – | 2.02 | – | – | – | –
9 | CCOC(=O)CC(=O)CC(=O)OCC | – | 250 | – | – | – | – | – | –
10 | Cc1ccc(S(=O)(=O)N(Cl)Cl)cc1 | 83 | – | – | – | – | – | – | –
11 | CCN(CC)c1cccc2ccccc12 | – | 285 | – | – | – | – | – | –
12 | Oc1ccccc1-c1ccccc1 | 59 | 286 | – | -2.7 | – | readily biodegradable | – | –
13 | COc1ccc(F)cc1 | -45 | 157 | – | – | – | – | – | –
14 | CN(C)CCCN | -60 | 133 | – | 1 | – | – | – | –
15 | CN(C)CCCCN(C)C | – | 168 | – | – | – | – | – | –
16 | c1ccc2c(Nc3cccc4ccccc34)cccc2c1 | 115 | – | – | – | – | – | – | –
17 | CCC1(C)CC(=O)NC1=O (stereo not drawn) | 65 | – | – | – | – | – | – | –
18 | COCCl | -104 | 59.5 | – | 1.48 | – | readily biodegradable | – | –
19 | COc1cccc2c1C(=O)c1c(O)c3c(c(O)c1C2=O)C[C@@](O)(C(C)=O)C[C@@H]3O[C@H]1C[C@H](N)[C@H](O)[C@H](C)O1 | 208 | – | – | – | – | – | – | –
20 | Cc1cc(C(C)(C)C)c(O)c(C(C)(C)C)c1 | 71 | 265 | – | -2.29 | – | readily biodegradable | – | –

Row | SMILES | melting point [°C] | boiling point [°C] | log10 Henry constant (atm·m³/mol) | log10 vapour pressure (mmHg) | solubility [µM] | ready biodegradability | logP | log10 biodegradation half-life (days)
21 | CN(C)C(=O)Nc1ccc(SC(F)(F)Cl)c(Cl)c1 | 114 | – | – | – | – | – | – | –
22 | Clc1ccc(Oc2cc(Cl)cc(Cl)c2)cc1 | – | – | – | -3.76 | – | – | – | –
23 | CC(C)COCC(C)O (stereo not drawn) | – | 165 | – | 0.114 | – | – | – | –
24 | CCOc1cc(Cl)c(N)c(Cl)c1 | 46 | 275 | – | – | – | – | – | –
25 | CC(O)COC(C)COC(C)CO (stereo not drawn) | – | – | – | – | – | not readily biodegradable | – | –
26 | Clc1cccc(Oc2ccc(Cl)cc2Cl)c1 | – | – | – | -3.74 | – | – | – | –
27 | CCC(=O)c1ccc(N)cc1 | 140 | – | – | – | – | – | – | –
28 | Cc1ccc2sccc2c1 | 20.5 | – | – | – | – | – | – | –
29 | CC(=O)NC12CC3CC(CC(C3)C1)C2 | 148 | – | – | – | – | – | – | –
30 | O=C=Nc1ccccc1[N+](=O)[O-] | 41 | – | – | – | – | – | – | –
31 | CCCl | -139 | 12.3 | -1.95 | 3 | – | not readily biodegradable | – | –
32 | O=C(O)c1ccc(Sc2ccccc2)cc1 | – | – | – | – | – | readily biodegradable | – | –
33 | [O-][n+]1ccccc1 | 65.5 | – | – | – | – | – | – | –
34 | CCCC(N)=O | 115 | 216 | – | -2.41 | – | – | – | –
35 | CC(=O)NC(=O)COC(=O)c1ccccc1 | 104 | – | – | – | – | – | – | –
36 | CN(C)CCN1C(=O)c2ccccc2Nc2cc(Cl)ccc21 | 166 | – | – | – | – | – | – | –
37 | CC(C)CN1CCOCC1 | – | 181 | – | – | – | not readily biodegradable | – | –
38 | c1ccc(COc2ccc3[nH]ccc3c2)cc1 | 102 | – | – | – | – | – | – | –
39 | CCC1CCCCN1C(=O)COC(=O)c1ccccc1 (stereo not drawn) | 54.5 | – | – | – | – | – | – | –
40 | C#CC=O | – | 60 | – | – | – | – | – | –

Row | SMILES | melting point [°C] | boiling point [°C] | log10 Henry constant (atm·m³/mol) | log10 vapour pressure (mmHg) | solubility [µM] | ready biodegradability | logP | log10 biodegradation half-life (days)
41 | CC(=O)O[Si](C)(OC(C)=O)OC(C)=O | 40.5 | – | – | – | – | – | – | –
42 | CCCC(O)C(=O)O (stereo not drawn) | 34 | – | – | – | – | – | – | –
43 | CC[C@H]1OC(=O)[C@H](C)[C@@H](O[C@H]2C[C@@](C)(OC)[C@@H](O)[C@H](C)O2)[C@H](C)[C@@H](O[C@@H]2O[C@H](C)C[C@H](N(C)C)[C@H]2O)[C@](C)(O)C[C@@H](C)CN(C)[C@H](C)[C@@H](O)[C@]1(C)O | 114 | – | – | – | – | – | – | –
44 | BrCCCCOc1ccccc1 | 41 | – | – | – | – | – | – | –
45 | Nc1cccc2nsnc12 | 68 | – | – | – | – | – | – | –
46 | COc1ccc(OC)c(Cl)c1 | – | – | – | – | – | not readily biodegradable | – | –
47 | CCCCCCCCCCCCCCC1CCCCC1 | 24 | 360 | – | – | – | – | – | –
48 | Nc1nccs1 | 93 | – | – | – | – | not readily biodegradable | – | –
49 | c1ccc2c(Oc3cccc4ccccc34)cccc2c1 | 110 | – | – | – | – | – | – | –
50 | CCc1cccc(Cl)c1 | -55 | 184 | – | – | – | – | – | –
51 | Oc1ccc(C2(c3ccc(O)cc3)CCCCC2)cc1 | – | – | – | – | – | not readily biodegradable | – | –
52 | Clc1ccc(Br)cc1Cl | 25 | 237 | – | – | – | – | – | –
53 | CCCC(=O)CC(C)C | – | 155 | – | – | – | – | – | –
54 | N#Cc1cc(Cl)ccc1N | 97 | – | – | – | – | – | – | –
55 | CC(O)(CCO)CCO | – | – | – | – | – | not readily biodegradable | – | –
56 | Brc1ccc(Oc2ccccc2Br)c(Br)c1 | – | – | – | – | – | – | 5.74 | –
57 | Cc1ccc(CBr)cc1 | 35 | 220 | – | – | – | – | – | –
58 | CC(C)C(C)(C)C | -25 | 80.8 | – | 2.01 | – | – | – | 0.778

Same assay, conditions: fish

Row | SMILES | log10 BCF | log10 biotransformation half-life (days)
59 | CN(C)C1CSSC1 | 1.72 | –
60 | Nc1cccc2c(N)cccc12 | 0.65 | -0.52
61 | Cc1ccsc1 | 0.72 | -1.27
62 | Cc1cc(C(C)(C)C)c(O)c(C(C)(C)C)c1 | 3.03 | 0.32
63 | CC(C)CN1CCOCC1 | 0.25 | –
